Results from PubChem BioAssay (NCI).
Several values for one entry are separate records, joined by “and”; a condition that tells them apart may be missing. Identical values can stand only once.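 Method: 48-hour compound exposure of cells in 96-well plates, five concentrations, linear interpolation of endpoints. GI50 is the concentration that inhibits growth by half. TGI denotes the concentration required for complete inhibition of growth.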

How the values were obtained:
Test in all cases: growth of human tumour cells (NCI), 48 h
UO-31 renal = test system: UO-31 renal
MALME-3M melanoma = test system: MALME-3M melanoma
TK-10 renal = test system: TK-10 renal
NCI-H522 lung = test system: NCI-H522 lung
DU-145 prostate = test system: DU-145 prostate
SW-620 colon = test system: SW-620 colon
SF-295 CNS = test system: SF-295 CNS
NCI-H460 lung = test system: NCI-H460 lung
EKVX NSCLC = test system: EKVX NSCLC
IGROV1 ovarian = test system: IGROV1 ovarian

SMILES | TGI (UO-31 renal) | TGI (MALME-3M melanoma) [µM] | TGI (TK-10 renal) [µM] | TGI (NCI-H522 lung) [µM] | TGI (DU-145 prostate) [µM] | TGI (SW-620 colon) [µM] | TGI (SF-295 CNS) [µM] | TGI (NCI-H460 lung) [µM] | TGI (EKVX NSCLC) [µM] | TGI (IGROV1 ovarian) [µM] | GI50 (UO-31 renal) [µM] | GI50 (MALME-3M melanoma) [µM] | GI50 (TK-10 renal) [µM] | GI50 (NCI-H522 lung) [µM] | GI50 (DU-145 prostate) [µM] | GI50 (SW-620 colon) [µM] | GI50 (SF-295 CNS) [µM] | GI50 (NCI-H460 lung) [µM] | GI50 (EKVX NSCLC) [µM] | GI50 (IGROV1 ovarian) [µM]
COC(=O)C#Cc1ccc([N+](=O)[O-])cc1 | 2.85 µM | 4.41 | 3.79 | 3.47 | 3.57 | 3.78 | 10.9 | 38.7 | 3.48 | 3.92 | – | – | – | – | – | – | – | – | – | –
CN(CCC(=O)O)S(=O)(=O)c1ccccc1 | > 100 µM | > 100 | > 100 | > 100 | > 100 | > 100 | > 100 | > 100 | > 100 | > 100 | – | – | – | – | – | – | – | – | – | –
CO[C@H]1CC[C@@]2(C)C(=CC[C@H]3[C@@H]4C[C@H](O)C[C@@]4(C)CC[C@@H]32)C1 | 23.4 µM | 19.4 | 17.9 | 15.5 | 15.2 | 15 | 8.02 | 13.9 | 29 | 26.5 | 6.53 | 5.22 | 4.74 | 3.96 | 4.37 | 3.38 | 2.45 | 3.56 | 6.85 | 6.91
O=C(O)c1cccc(CC(Br)C(=O)O)c1 (centres undefined) | > 100 µM | > 100 | > 100 | > 100 | > 100 | > 100 | > 100 | > 100 | > 100 | > 100 | – | – | – | – | – | – | – | – | – | –
Cc1cccc(N=C2c3cc([N+](=O)[O-])ccc3-c3c2cc([N+](=O)[O-])cc3[N+](=O)[O-])c1 | 29.9 µM | 21.2 | > 100 | 41.7 | 11 | 3.76 | > 100 | 14.4 | 19.7 | > 100 | 10.9 | 4.82 | 12.9 | 4.35 | 3.24 | 2.01 | 25.2 | 3.64 | 5.08 | 5.89
COc1ccc2c(c1)Cc1c-2c(NN)nc2ccccc12 | > 100 µM | > 100 | > 100 | 58.5 | > 100 | > 100 | > 100 | 69 | > 100 | > 100 | 25.7 | > 100 | 57.3 | 20.2 | 32 | 21.1 | 25.7 | 14.9 | 66.1 | 24.6
O=C1/C(=C/c2ccc(Cl)cc2)CN(C(=O)C(Cl)Cl)C/C1=C\c1ccc(Cl)cc1 | 0.3 µM | 0.759 | 1.52 | 1.4 | 1.31 | 0.231 | 0.683 | 0.822 | 1.03 | 0.422 | 0.156 | 0.23 | 0.374 | 0.31 | 0.357 | 0.04 | 0.214 | 0.274 | 0.292 | 0.178
COc1cc(-c2nc3ccccc3s2)ccc1OCc1nc2n(n1)S(=O)(=O)c1ccccc1N2C | > 100 µM | > 100 | > 100 | > 100 | > 100 | > 100 | > 100 | > 100 | > 100 | > 100 | > 100 | > 100 | > 100 | 96.8 | > 100 | > 100 | > 100 | > 100 | > 100 | > 100
Cn1cnc2c(NCc3ccccc3)nc(NCCO)nc21 | > 96.2 µM and 420 µM | 241 | > 456 | 322 | > 500 | > 426 | > 500 | 441 | 170 | 334 | 93.6 | – | 135 | 90.6 | 125 | 158 | 122 | 77.8 | 57 | 67.9
Nc1nccc(Nc2ccc(S(N)(=O)=O)cc2)n1 | > 100 µM | > 100 | > 100 | > 100 | > 100 | > 100 | > 100 | > 100 | > 100 | > 100 | – | – | – | – | – | – | – | – | – | –
C[C@]12CCC(=O)C=C1CC[C@@H]1[C@@H]2CC[C@]2(C)C(=O)/C(=C/c3cccc(OCCN4CCOCC4)c3)C[C@@H]12 | 30 µM | 36 | > 100 | 26.4 | 51.5 | 27.7 | 16.6 | 30.1 | 42.3 | 95.9 | 12.1 | 14.7 | 17.7 | 8 | 17.9 | 8.45 | 3.74 | 7.11 | 5.57 | 23.5
COC1CC2CCC(C)[C@](O)(O2)C(=O)C(=O)N2CCCCC2C(=O)OC(C(C)CC2CCC(O)C(OC)C2)CC(=O)C(C)C=C(C)C(OC(=O)CN(C)C)C(OC)C(=O)C(C)CC(C)/C=C/C=C/C=C\1C (some centres undefined) | 5.27 µM | 20.4 | 23.8 | 22.6 | 14.5 | 21.9 | 20.7 | 21.7 | 20.3 | 9.88 | – | – | – | – | – | – | – | – | – | –
O=C(Nc1ccc(Br)c(Cl)c1)c1cc(F)ccc1O | 1.89 µM | 1.99 | 29.8 | 2.93 | > 50 | 9.67 | 1.89 | > 14.8 | 10 | > 50 | 0.153 | 0.263 | 1.92 | 0.238 | 1.39 | 1.2 | 0.933 | 0.675 | 0.77 | 0.682
CN1CCN(Cc2ccc(NC(=O)c3cncc(C#Cc4c(N)ncc5cc(F)ccc45)c3)cc2C(F)(F)F)CC1 | 5.06 µM | 1.14 | 4.43 | 5.45 | 1.58 | 1.4 | 14 | 1.9 | 10.2 | 3.02 | 1.44 | 0.36 | 2.08 | 2.01 | 0.874 | 0.529 | 6.47 | 0.904 | 2.8 | 0.813
